Data taken from patent US10653146B2, “Microbiocidal oxadiazole derivatives” (SYNGENTA PARTICIPATIONS AG, priority 2016, dated 2020).

Columns and labels:
[1] = test system: Puccinia recondita f. Sp. Tritici; assay: Fungicidal activity against Puccinia recondita f. sp. tritici / wheat / leaf disc preventative (brown rust); assay type: in vivo; conditions: foliar, 200 ppm in the applied formulation, wheat leaf segments cv. Kanzler, inoculated 1 day after application, assessed 7 to 9 days after application, read-out: disease control compared to untreated control leaf disks
Procedure: Leaf disks or leaf segments of various plant species are cut from plants grown in a greenhouse. The cut leaf disks or segments are placed in multiwell plates (24-well format) onto water agar. The leaf disks are sprayed with a test solution before (preventative) or after (curative) inoculation. Compounds to be tested are prepared as DMSO solutions (max. 10 mg/ml) which are diluted to the appropriate concentration with 0.025% Tween20 just before spraying. The inoculated leaf disks or segments are incubated under defined conditions (temperature, relative humidity, light, etc.) according to the respective test system. A single evaluation of disease level is carried out 3 to 14 days after inoculation, depending on the pathosystem. Percent disease control relative to the untreated check leaf disks or segments is then calculated. Wheat leaf segments cv. Kanzler were placed on agar in multiwell plates (24-well format) and sprayed with the formulated test compound diluted in water. The leaf disks were inoculated with a spore suspension of the fungus 1 day after application. The inoculated leaf segments were incubated at 19° C. and 75% relative humidity (rh) under a light regime of 12 hours light/12 hours darkness in a climate cabinet and the activity of a compound was assessed as percent disease control compared to untreated when an appropriate level of disease damage appears in untreated check leaf segments (7 to 9 days after application). The following compounds at 200 ppm in the applied formulation give at least 80% disease control in this test when compared to untreated control leaf disks under the same conditions, which show extensive disease development.

[2] = test system: Phakopsora pachyrhizi; assay: Fungicidal activity against Phakopsora pachyrhizi / soybean / leaf disc preventative (Asian soybean rust); assay type: in vivo; conditions: foliar, 200 ppm in the applied formulation, soybean leaf disks, inoculated one day after application, assessed 12 to 14 days after application, read-out: disease control compared to untreated control leaf disks
Procedure: (§1) Leaf disks or leaf segments of various plant species are cut from plants grown in a greenhouse. The cut leaf disks or segments are placed in multiwell plates (24-well format) onto water agar. The leaf disks are sprayed with a test solution before (preventative) or after (curative) inoculation. Compounds to be tested are prepared as DMSO solutions (max. 10 mg/ml) which are diluted to the appropriate concentration with 0.025% Tween20 just before spraying. The inoculated leaf disks or segments are incubated under defined conditions (temperature, relative humidity, light, etc.) according to the respective test system. A single evaluation of disease level is carried out 3 to 14 days after inoculation, depending on the pathosystem. Percent disease control relative to the untreated check leaf disks or segments is then calculated.
Soybean leaf disks are placed on water agar in multiwell plates (24-well format) and sprayed with the formulated test compound diluted in water. One day after application leaf discs are inoculated by spraying a spore suspension on the lower leaf surface. After an incubation period in a climate cabinet of 24-36 hours in darkness at 20° C. and 75% rh leaf disc are kept at 20° C. with 12 h light/day and 75% rh. The activity of a compound is assessed as percent disease control compared to untreated when an appropriate level of disease damage appears in untreated check leaf disks (12 to 14 days after application).
(§2) The following compounds at 200 ppm in the applied formulation give at least 80% disease control in this test when compared to untreated control leaf disks under the same conditions, which show extensive disease development.

[3] = test system: Glomerella lagenarium (Colletotrichum lagenarium); assay: Fungicidal activity against Glomerella lagenarium (Colletotrichum lagenarium) liquid culture / cucumber / preventative (anthracnose); assay type: cell-based; conditions: Colletotrichum orbiculare; 20 ppm in the applied formulation; liquid culture in PDB, 24° C.; 3 to 4 days after application; read-out: disease control compared to untreated control (inhibition of growth measured photometrically)
Procedure: Mycelia fragments or conidia suspensions of a fungus prepared either freshly from liquid cultures of the fungus or from cryogenic storage, are directly mixed into nutrient broth. DMSO solutions of the test compound (max. 10 mg/ml) are diluted with 0.025% Tween20 by a factor of 50 and 10 μl of this solution is pipetted into a microtiter plate (96-well format). The nutrient broth containing the fungal spores/mycelia fragments is then added to give an end concentration of the tested compound. The test plates are incubated in the dark at 24° C. and 96% relative humidity. The inhibition of fungal growth is determined photometrically after 2 to 7 days, depending on the pathosystem, and percent antifungal activity relative to the untreated check is calculated.
Conidia of the fungus from cryogenic storage are directly mixed into nutrient broth (PDB—potato dextrose broth). After placing a (DMSO) solution of test compound into a microtiter plate (96-well format), the nutrient broth containing the fungal spores is added. The test plates are incubated at 24° C. and the inhibition of growth is measured photometrically 3 to 4 days after application.
The following compounds at 20 ppm in the applied formulation give at least 80% disease control in this test when compared to untreated control under the same conditions, which show extensive disease development.

[4] = test system: Puccinia recondite f. Sp. Tritici; assay: Fungicidal activity against Puccinia recondite f. sp. tritici / wheat / leaf disc curative (brown rust); assay type: in vivo; conditions: foliar, 200 ppm in the applied formulation, wheat leaf segments cv. Kanzler, applied 1 day after inoculation, assessed 6 to 8 days after application, read-out: disease control compared to untreated control leaf disks
Procedure: as §1
Wheat leaf segments cv. Kanzler are placed on agar in multiwell plates (24-well format). The leaf segments are then inoculated with a spore suspension of the fungus. Plates were stored in darkness at 19° C. and 75% relative humidity. The formulated test compound diluted in water was applied 1 day after inoculation. The leaf segments were incubated at 19° C. and 75% relative humidity under a light regime of 12 hours light/12 hours darkness in a climate cabinet and the activity of a compound was assessed as percent disease control compared to untreated when an appropriate level of disease damage appears in untreated check leaf segments (6 to 8 days after application).
as §2

| melting point [°C] | SMILES | pest or weed control at 200 ppm [1] [%] | pest or weed control at 200 ppm [2] [%] | inhibition at 20 ppm [3] [%] | pest or weed control at 200 ppm [4] [%] |
| --- | --- | --- | --- | --- | --- |
| 155 to 156 | CC(C)(C)OC(=O)NCCNC(=O)C(=O)c1ccc(-c2noc(C(F)(F)F)n2)cc1 [Compound 1.37, tert-butyl N-[2-[[2-oxo-2-[4-[5-(trifluoromethyl)-1,2,4-oxadiazol-3-yl]phenyl]acet-yl]amino]eth-yl]carbamate] | ≥ 80 | ≥ 80 |  |  |
| 64 to 70 | O=C(NC1CCCC1(F)F)C(=O)c1ccc(-c2noc(C(F)(F)F)n2)cc1 (stereo not drawn) [Compound 1.34, N-(2,2-difluoro-cyclopentyl)-2-oxo-2-[4-[5-(trifluoromethyl)-1,2,4-oxadiazol-3-yl]phenyl]acetamide] | ≥ 80 | ≥ 80 | ≥ 80 | ≥ 80 |
|  | CCCNC(=O)C(=O)c1ccc(-c2noc(C(F)(F)F)n2)cc1 [Compound 1.42, 2-oxo-N-propyl-2-[4-[5-(trifluoromethyl)-1,2,4-oxadiazol-3-yl]phenyl]acetamide] | ≥ 80 | ≥ 80 | ≥ 80 | ≥ 80 |
| 94 to 100 | O=C(NCCF)C(=O)c1ccc(-c2noc(C(F)(F)F)n2)cc1 [Compound 1.31, N-(2-fluoroethyl)-2-oxo-2-[4-[5-(trifluoromethyl)-1,2,4-oxadiazol-3-yl]phenyl]acetamide] | ≥ 80 | ≥ 80 | ≥ 80 | ≥ 80 |
| 213 to 214 | Cl.NCCNC(=O)C(=O)c1ccc(-c2noc(C(F)(F)F)n2)cc1 [Compound 1.9, 2-[[2-oxo-2-[4-[5-(trifluoromethyl)-1,2,4-oxadiazol-3-yl]phenyl]acet-yl]amino]ethyl-ammonium; chloride] | ≥ 80 |  | ≥ 80 | ≥ 80 |
| 143.6 to 147.6 | N#CCNC(=O)C(=O)c1ccc(-c2noc(C(F)(F)F)n2)cc1 [Compound 1.14, N-(cyanomethyl)-2-oxo-2-[4-[5-(trifluoromethyl)-1,2,4-oxadiazol-3-yl]phenyl]acetamide] | ≥ 80 |  | ≥ 80 | ≥ 80 |
| 83 to 85.3 | CC(C)CNC(=O)C(=O)c1ccc(-c2noc(C(F)(F)F)n2)cc1 [Compound 1.15, N-isobutyl-2-oxo-2-[4-[5-(trifluoromethyl)-1,2,4-oxadiazol-3-yl]phenyl]acetamide] | ≥ 80 |  | ≥ 80 | ≥ 80 |
| 84 to 86 | O=C(NCc1ccccc1F)C(=O)c1ccc(-c2noc(C(F)(F)F)n2)cc1 [Compound 1.26, N-[(2-fluorophen-yl)methyl]-2-oxo-2-[4-[5-(trifluoromethyl)-1,2,4-oxadiazol-3-yl]phenyl]acetamide] | ≥ 80 |  | ≥ 80 | ≥ 80 |
| 96 to 97.7 | CC(C)NC(=O)C(=O)c1ccc(-c2noc(C(F)(F)F)n2)cc1 [Compound 1.13, N-isopropyl-2-oxo-2-[4-[5-(trifluoromethyl)-1,2,4-oxadiazol-3-yl]phenyl]acetamide] | ≥ 80 |  | ≥ 80 | ≥ 80 |
| 113.1 to 116 | O=C(NC1CC1)C(=O)c1ccc(-c2noc(C(F)(F)F)n2)cc1 [Compound 1.16, N-cyclopropyl-2-oxo-2-[4-[5-(trifluoromethyl)-1,2,4-oxadiazol-3-yl]phenyl]acetamide] | ≥ 80 |  | ≥ 80 | ≥ 80 |
| 118 to 120 | COc1cccc(NC(=O)C(=O)c2ccc(-c3noc(C(F)(F)F)n3)cc2)n1 [Compound 1.24, N-(6-methoxy-2-pyridyl)-2-oxo-2-[4-[5-(trifluoromethyl)-1,2,4-oxadiazol-3-yl]phenyl]acetamide] | ≥ 80 | ≥ 80 | ≥ 80 |  |
| 167 to 168 | CNC(=O)CNC(=O)C(=O)c1ccc(-c2noc(C(F)(F)F)n2)cc1 [Compound 1.7, N-[2-(methyl-amino)-2-oxo-ethyl]-2-oxo-2-[4-[5-(trifluoromethyl)-1,2,4-oxadiazol-3-yl]phenyl]acetamide] | ≥ 80 |  | ≥ 80 | ≥ 80 |
| 65.1 to 68.2 | CCCCNC(=O)C(=O)c1ccc(-c2noc(C(F)(F)F)n2)cc1 [Compound 1.12, N-butyl-2-oxo-2-[4-[5-(trifluoromethyl)-1,2,4-oxadiazol-3-yl]phenyl]acetamide] | ≥ 80 |  | ≥ 80 | ≥ 80 |
| 131 to 136 | O=C(NC1COC1)C(=O)c1ccc(-c2noc(C(F)(F)F)n2)cc1 [Compound 1.27, N-(oxetan-3-yl)-2-oxo-2-[4-[5-(trifluoromethyl)-1,2,4-oxadiazol-3-yl]phenyl]acetamide] | ≥ 80 |  | ≥ 80 | ≥ 80 |
| 88 to 89 | COC(CNC(=O)C(=O)c1ccc(-c2noc(C(F)(F)F)n2)cc1)OC [Compound 1.38, N-(2,2-dimethoxyethyl)-2-oxo-2-[4-[5-(trifluoromethyl)-1,2,4-oxadiazol-3-yl]phenyl]acetamide] | ≥ 80 |  | ≥ 80 | ≥ 80 |
| 147 to 148 | O=C(NCCO)C(=O)c1ccc(-c2noc(C(F)(F)F)n2)cc1 [Compound 1.1, N-(2-hydroxy-ethyl)-2-oxo-2-[4-[5-(trifluoromethyl)-1,2,4-oxadiazol-3-yl]phenyl]acetamide] | ≥ 80 |  | ≥ 80 | ≥ 80 |
| 146.7 to 149.7 | NC(=O)C(=O)c1ccc(-c2noc(C(F)(F)F)n2)cc1 [Compound 1.18, 2-oxo-2-[4-[5-(trifluoromethyl)-1,2,4-oxadiazol-3-yl]phenyl]acetamide] | ≥ 80 |  | ≥ 80 | ≥ 80 |
